Laboratory results: US4049695A, “3-((3-Trifluoromethyl)phenyl)sulfonyl)-2-propenenitrile” (The Dow Chemical Company, priority 1976, dated 1977)
≈ marks a conversion by molar mass, not a printed value.

Assays:
Experiment in all cases: in vitro agar Petri dish dilution test
Type in all cases: cell-based
A. fumigatus = conditions: Aspergillus fumigatus, 100% inhibition, read-out: Minimum Inhibitory Concentration
Text: (§1) The inventive product has antimicrobial activity. In the conventional in vitro agar Petri dish dilution test for determining bactericidal and fungicidal activity, the compound gave 100% inhibition against the indicated organisms at the following concentrations in parts per million, the tabulated values being indicated as minimum inhibitory concentrations (MIC).

A. niger = conditions: Aspergillus niger, 100% inhibition, read-out: Minimum Inhibitory Concentration
Text: as §1

B. subtilis = conditions: Bacillus subtilis, 100% inhibition, read-out: Minimum Inhibitory Concentration
Text: as §1

C. albicansNIH = conditions: Candida albicans, 100% inhibition, read-out: Minimum Inhibitory Concentration
Text: as §1

C. albicans = conditions: Candida albicans, 100% inhibition, read-out: Minimum Inhibitory Concentration
Text: as §1

C. ips = conditions: 100% inhibition, read-out: Minimum Inhibitory Concentration
Text: as §1

C. pelliculosa = conditions: Hansenula anomala, 100% inhibition, read-out: Minimum Inhibitory Concentration
Text: as §1

E. coli ATCC 11229 = conditions: Escherichia coli, ATCC11229, 100% inhibition, read-out: Minimum Inhibitory Concentration
Text: as §1

[1] = test system: K. pneumoniae M-1 Midland Hospital; conditions: Klebsiella pneumoniae, 100% inhibition, read-out: Minimum Inhibitory Concentration
Text: as §1

P. chrysogenum = conditions: Penicillium chrysogenum, 100% inhibition, read-out: Minimum Inhibitory Concentration
Text: as §1

P. pullulans = conditions: 100% inhibition, read-out: Minimum Inhibitory Concentration
Text: as §1

[2] = test system: Pseudomonas Sp. Strain 10; conditions: 100% inhibition, read-out: Minimum Inhibitory Concentration
Text: as §1

S. aureus = conditions: Staphylococcus aureus, 100% inhibition, read-out: Minimum Inhibitory Concentration
Text: as §1

S. marcescens NIH = conditions: Serratia marcescens, 100% inhibition, read-out: Minimum Inhibitory Concentration
Text: as §1

S. typhosa = conditions: 100% inhibition, read-out: Minimum Inhibitory Concentration
Text: as §1

T. mentagrophytes = conditions: Trichophyton mentagrophytes, 100% inhibition, read-out: Minimum Inhibitory Concentration
Text: as §1

Torulopsis Species = conditions: 100% inhibition, read-out: Minimum Inhibitory Concentration
Text: as §1

[3] = test system: Trichoderm Sp. Madison P-42; conditions: 100% inhibition, read-out: Minimum Inhibitory Concentration
Text: as §1

Compound: N#CC=CS(=O)(=O)c1cccc(C(F)(F)F)c1 [3-((3-(Trifluoromethyl)phenyl)sulfonyl)-2-propenenitrile]
- MIC (A. fumigatus): 50 µg/mL (≈ 191 µM)
- MIC (A. niger): 50 µg/mL (≈ 191 µM)
- MIC (B. subtilis): 5 µg/mL (≈ 19.1 µM)
- MIC (C. albicansNIH): 50 µg/mL (≈ 191 µM)
- MIC (C. albicans): 50 µg/mL (≈ 191 µM)
- MIC (C. ips): 10 µg/mL (≈ 38.3 µM)
- MIC (C. pelliculosa): 10 µg/mL (≈ 38.3 µM)
- MIC (E. coli ATCC 11229): 50 µg/mL (≈ 191 µM)
- MIC [1]: 50 µg/mL (≈ 191 µM)
- MIC (P. chrysogenum): 50 µg/mL (≈ 191 µM)
- MIC (P. pullulans): 50 µg/mL (≈ 191 µM)
- MIC [2]: 100 µg/mL (≈ 383 µM)
- MIC (S. aureus): 5 µg/mL (≈ 19.1 µM)
- MIC (S. marcescens NIH): 50 µg/mL (≈ 191 µM)
- MIC (S. typhosa): 5 µg/mL (≈ 19.1 µM)
- MIC (T. mentagrophytes): 10 µg/mL (≈ 38.3 µM)
- MIC (Torulopsis Species): 50 µg/mL (≈ 191 µM)
- MIC [3]: 50 µg/mL (≈ 191 µM)
